Patent publication US10231973B2, “Salts of quinazoline derivative and method for preparing the same” (CHIA TAI TIANQING PHARMACEUTICAL GROUP CO., LTD., priority 2015, dated 2019)
Where two headings read alike, the source gives them in different places.

Assays:
[1] = Bioavailability test, oral suspensions in beagle dogs; type: in vivo; settings: oral suspension in CMC-Na, 5 mg/kg (as compound of Formula I); for Cmax: plasma concentration of compound of Formula I by LC-MS; for AUC0-t: sampling to 48 h
Procedure: Study procedure: Fifteen beagle dogs (7.4˜9.4 kg body weight) were randomly divided into 5 groups, and administered orally suspensions of the compound of Formula I, the maleate, citrate, oxalate and acetate thereof (calculated according to the amount of the compound of Formula I) in CMC-Na (carboxymethylcellulose sodium) at a dosage of 5 mg/kg body weight, respectively.
Chromatographic conditions: methanol as mobile phase A and a 0.1% (v/v) aqueous solution of formic acid as mobile phase B, an isocratic elution A:B=52:48; 0.2 mL/min of a flow rate; 35° C. of column temperature; and SHIMADZU Shim-pack VP-ODS C18 (5.0 μm, 150 mm×2.0 mm I.D., Shimadzu Corporation) as chromatographic column.
Mass spectrometry conditions: ion source: ESI ionization source, scanning in SIM mode, 250° C. of curved desolventizer (CDL) temperature, 200° C. of heating block temperature; 25V of CDL voltage; +1.60 kV of detection voltage; 1.5 L/min of atomization gas flow rate; 2.0 L/min of dry gas flow rate.

[2] = test system: NCI-H1975, a human non-small cell lung cancer cell; assay: Anchorage-independent cell proliferation assay, NCI-H1975; type: cell-based; settings: NCI-H1975, 168 h, soft agarose, 7 days treatment, CellTiter-Blue
Procedure: (§1) NCI-H1975, a human non-small cell lung cancer cell, and BT474, a human breast cancer cell line, were cultured in RPIM-1640 or DMEM culture medium supplemented with 10% fetal bovine serum (FBS) in a cell incubator (37° C., 5% CO2). In the test of the compound, culture plates were pre-coated with 0.6% medium, and the cells were resuspended with 0.3% low-melting-point agarose, and then seeded in a 96-well plate at a density of 10,000 cells per well (100 μL). The compound was diluted at a 3-fold gradient, starting from 10 mM. For each of concentration, 2 μL of the solution was taken, and added to 98 μL of culture medium, and then 5.3 μL of the mixture was added to the cell culture medium (0.1% of DMSO final concentration, v/v). After the treatment for one week (7 days), 20 μL of CellTiter-Blue® (Promega) reagent was added, and incubated at 37° C. for 4 hours. Fluorescence signals were read on Envison (Perkin Elmer), and IC50 values of the compound for inhibiting cell proliferation were calculated using GraphPad Prism 5.0.

[3] = test system: BT474, a human breast cancer cell line; assay: Anchorage-independent cell proliferation assay, BT474; type: cell-based; settings: BT-474, 168 h, soft agarose, 7 days treatment, CellTiter-Blue
Procedure: as §1

Row | Vd/F ([1]; dog, plasma) | half-life ([1]; dog, plasma) | Cmax ([1]; dog, read-out: Cmax) | CL/F ([1]; dog, plasma, read-out: CL/F (converted)) | Tmax ([1]; dog, plasma, read-out: Tmax) | AUC0-t ([1]; dog, plasma, read-out: AUC0-t) | IC50 [2] | IC50 [3] | Molecule | CL/F ([1]; plasma) | T1/2 ([1]; plasma) | Tmax ([1]; plasma) | Cmax [1] | AUC0-t ([1]; plasma)
1 | – | – | – | – | – | – | – | – | CC(=O)O [Acetate] | 55.2 mL/min/kg | 9.41 h | 3.33 h | 2080 ng/mL | 20350 ng·h/mL
2 | 0.78 ± 1.08 L/kg | 5.13 ± 2.85 h | 2820 ± 2830 ng/mL | 77.8 mL/min/kg | 3.17 ± 4.19 h | 42100 ng·h/mL | 14 nM | 2.1 nM | C=CC(=O)N1CCC(Nc2cc3c(Nc4ccc(F)c(Cl)c4)ncnc3cc2OC)CC1 [Example 1, N^6-(1-acryloylpiperidin-4-yl)-N^4-(3-chloro-4-fluorophenyl)-7-methoxyquinazoline-4,6-diamine] | – | – | – | – | –
3 | – | – | – | – | – | – | – | – | Citrate | 72 mL/min/kg | 4.48 h | 1.33 h | 1290 ng/mL | 10760 ng·h/mL
4 | – | – | – | – | – | – | – | – | Oxalate | 23.2 mL/min/kg | 9.38 h | 1.50 h | 3590 ng/mL | 53200 ng·h/mL
